Assay results reported in patent US20150218212A1, “FLUORINATED EPOXYKETONE-BASED TETRAPEPTIDE COMPOUNDS AND USES THEREOF AS PROTEASOME INHIBITORS” (FLUORINOV PHARMA INC., priority 2012, published 2015).

Experiments:
MM.1S tumor cells = assay: Inhibition of tumor growth in myeloma MM.1S mouse xenograft model; type: in vivo; conditions: MM.1S xenograft mice
Method: The mice were irradiated (200 rads) using a Co60 irradiator source. After 24 hrs, each mouse was inoculated subcutaneously with 5×10^6 MM.1S tumor cells in 0.1 mL PBS for tumor development. Treatments were started when the tumor volume reached 100 mm^3. Each treatment group consisted of 10 mice. The test articles of compounds of Formula I were administrated to the tumor-bearing mice according to a specific predetermined regimen.

HL-60(TB) = assay: NCI screening panel, HL-60(TB) (Leukemia); type: cell-based, human
Method: (§1) Representative compounds of Formula I were screened using the National Cancer Institute (NCI) screening panel, which consists of a panel of human tumor cell lines, representing leukemia, melanoma, and cancers of the lung, colon, ovary, breast, prostate and renal system.
(§2) After 24 h, two plates of each cell line are fixed in situ with TCA, to represent a measurement of the cell population for each cell line at the time of drug addition (Tz). Experimental drugs are solubilised in dimethyl sulfoxide at 400-fold the desired final maximum test concentration and stored frozen prior to use. At the time of drug addition, an aliquot of frozen concentrate is thawed and diluted to twice the desired final maximum test concentration with complete medium containing 50 μg/mL gentamicin. Additional four, 10-fold or ½ log serial dilutions are made to provide a total of five drug concentrations plus control. Aliquots of 100 μl of these different drug dilutions are added to the appropriate microtiter wells already containing 100 μl of medium, resulting in the required final drug concentrations.
(§3) Following drug addition, the plates are incubated for an additional 48 h at 37° C., 5% CO2, 95% air, and 100% relative humidity. For adherent cells, the assay is terminated by the addition of cold TCA (trichloroacetic acid). Cells are fixed in situ by the gentle addition of 50 μl of cold 50% (w/v) TCA (final concentration, 10% TCA) and incubated for 60 minutes at 4° C. The supernatant is discarded, and the plates are washed five times with tap water and air dried. Sulforhodamine B (SRB) solution (100 μl) at 0.4% (w/v) in 1% acetic acid is added to each well, and plates are incubated for 10 minutes at room temperature. After staining, unbound dye is removed by washing five times with 1% acetic acid and the plates are air dried. Bound stain is subsequently solubilised with 10 mM trizma base, and the absorbance is read on an automated plate reader at a wavelength of 515 nm. For suspension cells, the methodology is the same except that the assay is terminated by fixing settled cells at the bottom of the wells by gently adding 50 μl of 80% TCA (final concentration, 16% TCA). Using the seven absorbance measurements [time zero, (Tz), control growth, (C), and test growth in the presence of drug at the five concentration levels (Ti)], the percentage growth is calculated at each of the drug concentrations levels. Percentage growth inhibition is calculated as: [(Ti−Tz)/(C−Tz)]×100 for concentrations for which Ti>/=Tz and [(Ti−Tz)/Tz]×100 for concentrations for which Ti<Tz.
(§4) Three dose response parameters are calculated for each experimental agent. Growth inhibition of 50% (GI50) is calculated from [(Ti−Tz)/(C−Tz)]×100=50, which is the drug concentration resulting in a 50% reduction in the net protein increase (as measured by SRB staining) in control cells during the drug incubation. The drug concentration resulting in total growth inhibition (TGI) is calculated from Ti=Tz. The LC50 (concentration of drug resulting in a 50% reduction in the measured protein at the end of the drug treatment as compared to that at the beginning) indicating a net loss of cells following treatment is calculated from [(Ti−Tz)/Tz]×100=−50. Values are calculated for each of these three parameters if the level of activity is reached. However, if the effect is not reached or is exceeded, the value for that parameter is expressed as greater or less than the maximum or minimum concentration tested.

T-47D = assay: NCI screening panel, T-47D (Breast Cancer); type: cell-based, human
Method: as §1, §2, §3, §4

HOP-92 = assay: NCI screening panel, HOP-92 (Non-Small Cell Lung Cancer); type: cell-based, human
Method: as §1, §2, §3, §4

SW-620 = assay: NCI screening panel, SW-620 (Colon Cancer); type: cell-based, human
Method: as §1, §2, §3, §4

OVCAR-3 = assay: NCI screening panel, OVCAR-3 (Ovarian Cancer); type: cell-based, human
Method: as §1, §2, §3, §4

RXF 393 = assay: NCI screening panel, RXF 393 (Renal Cancer); type: cell-based, human
Method: as §1, §2, §3, §4

CC(C)C[C@H](NC(=O)[C@H](COC(F)F)NC(=O)CN1CCOCC1)C(=O)N[C@@H](COC(F)F)C(=O)N[C@@H](CC(C)C)C(=O)[C@@]1(C)CO1 [Example 1, (2S)—N-[(1S)-1-(difluoromethoxymethyl)-2-[[(1S)-3-methyl-1-[(2R)-2-methyloxirane-2-carbonyl]butyl]amino]-2-oxo-ethyl]-2-[[(2S)-3-(difluoromethoxy)-2-[(2-morpholinoacetyl)amino]propanoyl]amino]-4-methyl-pentanamide]
gross adverse effects including reductions in body weight or alterations in behaviour (MM.1S tumor cells; 4 mg/kg i.v, days 1, 3, 5/wk×28 days): no gross adverse effects
gross adverse effects including reductions in body weight or alterations in behaviour (MM.1S tumor cells; 8 mg/kg i.v, days 1, 2/wk×4 wks): no gross adverse effects
Log10GI50 (HL-60(TB)): −7.49
Log10LC50 (HL-60(TB)): >−4.00
Log10TGI50 (HL-60(TB)): −6.30
Log10GI50 (T-47D): −7.94
Log10LC50 (T-47D): −7.11
Log10TGI50 (T-47D): −7.53
Log10GI50 (HOP-92): −7.74
Log10LC50 (HOP-92): −6.50
Log10TGI50 (HOP-92): −7.30
Log10GI50 (SW-620): −7.54
Log10LC50 (SW-620): >−4.00
Log10TGI50 (SW-620): −5.43
Log10GI50 (OVCAR-3): −7.69
Log10LC50 (OVCAR-3): −6.91
Log10TGI50 (OVCAR-3): −7.34
Log10GI50 (RXF 393): −6.96
Log10LC50 (RXF 393): −6.21
Log10TGI50 (RXF 393): −6.59
